Source: publication PMC11855827, “High-Throughput Screening of Five Compound Libraries for Anthelmintic Activity and Toxicity Leads to the Discovery of Two Flavonoid Compounds” (International Journal of Molecular Sciences, 2025)
Like-named read-outs stand apart in the source and are kept apart here.

System: C. elegans
Test: microbe, parasite or virus in culture
Details: Caenorhabditis elegans
[1] = 0 h, read-out: Percentage of motility inhibition 0 h, Table S2, C. elegans SS assay, 110 μM, 0 h, averages of 4 data points
[2] = 24 h, read-out: Percentage of motility inhibition 24 h, Table S2, C. elegans SS assay, 110 μM, 24 h, averages of 4 data points
[3] = 0 h, read-out: Percentage of motility inhibition 0 h
[4] = 24 h, read-out: Percentage of motility inhibition 24 h

Row | Compound | inhibition at 110 µM [1] [%] | inhibition at 110 µM [2] [%] | inhibition at 110 µM [3] [%] | inhibition at 110 µM [4] [%]
1 | C[C@@H]1CC[C@@]2(NC1)O[C@H]1C[C@H]3[C@@H]4CC=C5C[C@@H](O[C@@H]6O[C@H](CO)[C@H](O)[C@H](O[C@@H]7O[C@H](CO)[C@@H](O)[C@H](O)[C@H]7O)[C@H]6O[C@@H]6O[C@@H](C)[C@H](O)[C@@H](O)[C@H]6O)CC[C@]5(C)[C@H]4CC[C@]3(C)[C@H]1[C@@H]2C [Solasonine] | 0 | 0 |  | 
2 | C=C1[C@H]2C[C@@]3([C@@H]1O)[C@@H](CC2=O)[C@]12[C@@H]4C[C@H]3[C@H]1N(CC)C[C@]4(C)CC[C@@H]2O [Songorine] |  |  | 5 | 9
3 | O=C1C=CC[C@@H]2[C@H]3CCCN4CCC[C@@H](CN12)[C@@H]34 [Sophocarpine] | 11 | 9 |  | 
4 | C=C(C)[C@H](CC=C(C)C)Cc1c(O)cc(O)c2c1O[C@H](c1ccc(O)cc1O)CC2=O [Sophoraflavanone G] |  |  | 55 | 4
5 | O=c1c(-c2ccc(O[C@@H]3O[C@H](CO)[C@@H](O)[C@H](O)[C@H]3O)cc2)coc2cc(O)cc(O)c12 [Sophoricoside] |  |  | 0 | 9
6 | CC1(C)C[C@H]2C3=CC[C@@H]4[C@@]5(C)CC[C@H](O)[C@](C)(CO)[C@@H]5CC[C@@]4(C)[C@]3(C)CC[C@@]2(C)[C@H](O)[C@@H]1O [Soyasapogenol A] | 5 | 3 |  | 
7 | CC1(C)C[C@@H](O)[C@]2(C)CC[C@]3(C)C(=CC[C@@H]4[C@@]5(C)CC[C@H](O)[C@](C)(CO)[C@@H]5CC[C@]43C)[C@@H]2C1 [Soyasapogenol B] | 9 | 39 |  | 
8 | C[C@@H]1CN(c2c(F)c(N)c3c(=O)c(C(=O)O)cn(C4CC4)c3c2F)C[C@H](C)N1 [Sparfloxacin] | 37 | 11 |  | 
9 | O=C1NCN(c2ccccc2)C12CCN(CCCOc1ccc(F)cc1)CC2 [Spiramide] | 49 | 6 |  | 
10 | Cc1cn([C@H]2C=C[C@@H](CO)O2)c(=O)[nH]c1=O [Stavudine] | 25 | 3 |  | 
11 | CCCCCCCCCCCCCCCCCC(=O)O [Stearic acid] | 0 | 1 |  | 
12 | C=C1C[C@@]23CC[C@H]4[C@@](C)(CCC[C@@]4(C)C(=O)O)[C@@H]2CC[C@]1(O)C3 [Steviol] | 13 | 34 |  | 
13 | C=C1C[C@@]23CC[C@H]4[C@@](C)(CCC[C@@]4(C)C(=O)O[C@@H]4O[C@H](CO)[C@@H](O)[C@H](O)[C@H]4O)[C@@H]2CC[C@]1(O[C@@H]1O[C@H](CO)[C@@H](O)[C@H](O)[C@H]1O[C@@H]1O[C@H](CO)[C@@H](O)[C@H](O)[C@H]1O)C3 [Stevioside] | 15 | 0 |  | 
14 | O=C(O)CCC(=O)O [Succinic acid] | 14 | 15 |  | 
15 | O=C(O)CCC(=O)Nc1ccc(S(=O)(=O)Nc2nccs2)cc1 [Succinylsulfathiazole] | 31 | 17 |  | 
16 | CC1(C)[C@H](C(=O)O)N2C(=O)C[C@H]2S1(=O)=O [Sulbactam] |  |  | 1 | 9
17 | Nc1ccc(S(=O)(=O)Nc2ccc(Cl)nn2)cc1 [Sulfachloropyridazine] | 14 | 0 |  | 
18 | Nc1ccc(S(=O)(=O)Nc2ncccn2)cc1 [Sulfadiazine] | 14 | 7 |  | 
19 | COc1cc(NS(=O)(=O)c2ccc(N)cc2)nc(OC)n1 [Sulfadimethoxine] | 15 | 3 |  | 
20 | COc1ncnc(NS(=O)(=O)c2ccc(N)cc2)c1OC [Sulfadoxine] | 18 | 5 |  | 
21 | [H]/N=C(/N)NS(=O)(=O)c1ccc(N)cc1 [Sulfaguanidine] | 22 | 8 |  | 
22 | COc1nccnc1NS(=O)(=O)c1ccc(N)cc1 [Sulfalene] | 2 | 15 |  | 

Row | Compound | inhibition at 110 µM [1] [%] | inhibition at 110 µM [2] [%] | inhibition at 110 µM [3] [%] | inhibition at 110 µM [4] [%]
23 | Cc1ccnc(NS(=O)(=O)c2ccc(N)cc2)n1 [Sulfamerazine] | 12 | 7 |  | 
24 | COc1cnc(NS(=O)(=O)c2ccc(N)cc2)nc1 [Sulfameter] | 25 | 8 |  | 
25 | Cc1cc(C)nc(NS(=O)(=O)c2ccc(N)cc2)n1 [Sulfamethazine] | 5 | 3 |  | 
26 | Cc1nnc(NS(=O)(=O)c2ccc(N)cc2)s1 [Sulfamethizole] | 4 | 0 |  | 
27 | Cc1cc(NS(=O)(=O)c2ccc(N)cc2)no1 [Sulfamethoxazole] | 30 | 11 |  | 
28 | COc1ccc(NS(=O)(=O)c2ccc(N)cc2)nn1 [Sulfamethoxypyridazine] | 2 | 8 |  | 
29 | COc1cc(NS(=O)(=O)c2ccc(N)cc2)ncn1 [Sulfamonomethoxine] | 6 | 1 |  | 
30 | Nc1ccc(S(N)(=O)=O)cc1 [Sulfanilamide] | 21 | 7 |  | 
31 | Nc1ccc(S(=O)(=O)Nc2ccnn2-c2ccccc2)cc1 [Sulfaphenazole] | 0 | 3 |  | 
32 | Cc1noc(NS(=O)(=O)c2ccc(N)cc2)c1C [Sulfisoxazole] | 9 | 7 |  | 
33 | CC(=O)NC[C@H]1CN(c2ccc(N3CCSCC3)c(F)c2)C(=O)O1 [Sutezolid] | 16 | 4 |  | 
34 | COc1cc(O)c2c(=O)c3c(O[C@@H]4O[C@H](CO)[C@@H](O)[C@H](O)[C@H]4O)ccc(O)c3oc2c1 [Swertianolin] | 11 | 0 |  | 
35 | COc1cc(C=O)cc(OC)c1O [Syringaldehyde] |  |  | 4 | 3
36 | CC[C@]12C=CCN3CC[C@]4(C(=C(C(=O)OC)C1)Nc1ccccc14)[C@@H]32 [Tabersonine] | 0 | 1 |  | 
37 | CCN1C[C@]2(COC)CC[C@H](OC)[C@]34C1[C@H](C[C@H]23)[C@@]1(O)C[C@H](OC)[C@H]2C[C@@H]4[C@@H]1[C@H]2O [Talatisamine] | 6 | 0 |  | 
38 | COc1ccc(-c2oc3cc(O)cc(O)c3c(=O)c2O)cc1O [Tamarixetin] | 20 | 10 |  | 
39 | COc1ccc(-c2cc(=O)c3c(OC)c(OC)c(OC)c(OC)c3o2)cc1 [Tangeretin] | 14 | 8 |  | 
40 | Cc1coc2c1C(=O)C(=O)c1c-2ccc2c(C)cccc12 [Tanshinone I] | 0 | 3 |  | 
41 | NCCS(=O)(=O)O [Taurine] | 8 | 0 |  | 
42 | C[C@H](CCC(=O)NCCS(=O)(=O)O)[C@H]1CC[C@H]2[C@@H]3CC[C@@H]4C[C@H](O)CC[C@]4(C)[C@H]3C[C@H](O)[C@]12C [Taurodeoxycholic acid] | 0 | 7 |  | 
43 | O=C1c2c(O)cc(O)cc2OC(c2ccc(O)c(O)c2)C1O (stereo not shown) [Taxifolin] | 10 | 14 |  | 
44 | C[C@]1(Cn2ccnn2)[C@H](C(=O)O)N2C(=O)C[C@H]2S1(=O)=O [Tazobactam] | 16 | 21 |  | 
